Data on 65 sequences can be found in the supplement of paper PMC11208160.
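Also: IS621 bridge recombinase in Escherichia coli cells against a fixed T5 target plasmid.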

This data set in a line: recombinant UMI read abundance after kanamycin selection (control-corrected) (log10(CPM+1)); higher = more efficient recombination; extreme values may be limits of the assay; sequences stand for … in AGTGCAGAGAAAATCGGCCAGTTTTCTCTGCCTGCAGTCCGCATGCCGTGGGACCCCTTGGGTTCTAACCTGTTGCCTAGATTTATGCAGCGGACTGCCTTTCTCCCAAAGTGATAAACCGG…AGGTTGGTTTCACT; site = the 11-nt donor. The method, then: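 Pooled E. coli donor-specificity screen for the IS621 bridge recombinase. Each library member carries a reprogrammed 11-nt donor and a full-length LE bridge RNA expressed in cis from the natural promoter, with a paired donor-binding loop (8-nt LDG + 4-nt RDG) and a target-binding loop fixed to T5. It is co-electroporated with a T5 target plasmid; recombinase is induced with 0.07 mM IPTG and recombinants are selected on kanamycin. UMIs are counted as CPM, averaged over two biological replicates and corrected by the unselected control. Molecule = full bridge RNA written as DNA, built from the T5 scaffold: LDG = donor specificity nt 1-8, RDG = reverse complement of nt 8-11.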
As to “AAGCACGCATGGACCGGTTTTCCCGGTAATCCGTATTTGGA (site AAGCACGCTCC)”, the “recombinant UMI read abundance (log10)” value turned out to be 0.0219.

Take “AAGCACGCATGGACCGGTTTTCCCGGTAATCCGTATTTGGA (site AAGCACGCTGC)”: the “recombinant UMI read abundance (log10)” value stood at 0.

As for “AAGCACGCATGGACCGGTTTTCCCGGTAATCCGTATTTGGA (site AAGCACGCTTC)”, the “recombinant UMI read abundance (log10)” value was found to be 0.817.

Take “AAGCACGCATGGACCGGTTTTCCCGGTAATCCGTATTTGGG (site AAACACGCTCC)”: the “recombinant UMI read abundance (log10)” value was found to be 0.00685.

Take “AAGCACGCATGGACCGGTTTTCCCGGTAATCCGTATTTGGG (site AACCACGCTCC)”: the “recombinant UMI read abundance (log10)” value turned out to be 0.0266.

For “AAGCACGCATGGACCGGTTTTCCCGGTAATCCGTATTTGGG (site AAGAACGCTCC)”, the “recombinant UMI read abundance (log10)” value came out at 0.0117.

Take “AAGCACGCATGGACCGGTTTTCCCGGTAATCCGTATTTGGG (site AAGCAAGCTCC)”: the “recombinant UMI read abundance (log10)” value amounted to 0.0142.

For the sequence “AAGCACGCATGGACCGGTTTTCCCGGTAATCCGTATTTGGG (site AAGCACACTCC)”, the “recombinant UMI read abundance (log10)” value was determined as 0.0106.

For the sequence “AAGCACGCATGGACCGGTTTTCCCGGTAATCCGTATTTGGG (site AAGCACCCTCC)”, the “recombinant UMI read abundance (log10)” value was determined as 0.

Consider “AAGCACGCATGGACCGGTTTTCCCGGTAATCCGTATTTGGG (site AAGCACGCTAC)”, for which the “recombinant UMI read abundance (log10)” value was 0.0125.

Regarding “AAGCACGCATGGACCGGTTTTCCCGGTAATCCGTATTTGGG (site AAGCACGCTCA)”, the “recombinant UMI read abundance (log10)” value worked out at 0.0347.

Take “AAGCACGCATGGACCGGTTTTCCCGGTAATCCGTATTTGGG (site AAGCACGCTCC)”: the “recombinant UMI read abundance (log10)” value was 0.133.

Consider “AAGCACGCATGGACCGGTTTTCCCGGTAATCCGTATTTGGG (site AAGCACGCTCG)”, for which the “recombinant UMI read abundance (log10)” value is 0.00834.

Turning to “AAGCACGCATGGACCGGTTTTCCCGGTAATCCGTATTTGGG (site AAGCACGCTCT)”, the “recombinant UMI read abundance (log10)” value was 0.265.

“AAGCACGCATGGACCGGTTTTCCCGGTAATCCGTATTTGGG (site AAGCACGCTGC)”: the “recombinant UMI read abundance (log10)” value turned out to be 0.

As to “AAGCACGCATGGACCGGTTTTCCCGGTAATCCGTATTTGGG (site AAGCACGCTTC)”, the “recombinant UMI read abundance (log10)” value came out at 0.012.

For “AAGCACGCATGGACCGGTTTTCCCGGTAATCCGTATTTGGG (site AAGCACTCTCC)”, the “recombinant UMI read abundance (log10)” value came out at 0.0617.

With “AAGCACGCATGGACCGGTTTTCCCGGTAATCCGTATTTGGG (site AAGCAGGCTCC)”, the “recombinant UMI read abundance (log10)” value is 0.0132.

Take “AAGCACGCATGGACCGGTTTTCCCGGTAATCCGTATTTGGG (site AAGCATGCTCC)”: the “recombinant UMI read abundance (log10)” value came to 0.0182.

On to “AAGCACGCATGGACCGGTTTTCCCGGTAATCCGTATTTGGG (site AAGCCCGCTCC)”, for which the “recombinant UMI read abundance (log10)” value was 0.0231.

As for “AAGCACGCATGGACCGGTTTTCCCGGTAATCCGTATTTGGG (site AAGCGCGCTCC)”, the “recombinant UMI read abundance (log10)” value came to 0.0213.

Turning to “AAGCACGCATGGACCGGTTTTCCCGGTAATCCGTATTTGGG (site AAGCTCGCTCC)”, the “recombinant UMI read abundance (log10)” value was 0.0309.

“AAGCACGCATGGACCGGTTTTCCCGGTAATCCGTATTTGGG (site AAGGACGCTCC)”: the “recombinant UMI read abundance (log10)” value was found to be 0.00889.

On to “AAGCACGCATGGACCGGTTTTCCCGGTAATCCGTATTTGGG (site AAGTACGCTCC)”, for which the “recombinant UMI read abundance (log10)” value was 0.0168.

Turning to “AAGCACGCATGGACCGGTTTTCCCGGTAATCCGTATTTGGG (site AATCACGCTCC)”, the “recombinant UMI read abundance (log10)” value amounted to 0.0177.

As for “AAGCACGCATGGACCGGTTTTCCCGGTAATCCGTATTTGGG (site ACGCACGCTCC)”, the “recombinant UMI read abundance (log10)” value is 0.0214.

“AAGCACGCATGGACCGGTTTTCCCGGTAATCCGTATTTGGG (site AGGCACGCTCC)”: the “recombinant UMI read abundance (log10)” value came out at 0.0204.

In the case of “AAGCACGCATGGACCGGTTTTCCCGGTAATCCGTATTTGGG (site ATGCACGCTCC)”, the “recombinant UMI read abundance (log10)” value worked out at 0.0113.

In the case of “AAGCACGCATGGACCGGTTTTCCCGGTAATCCGTATTTGGG (site CAGCACGCTCC)”, the “recombinant UMI read abundance (log10)” value turned out to be 0.00873.

Turning to “AAGCACGCATGGACCGGTTTTCCCGGTAATCCGTATTTGGG (site GAGCACGCTCC)”, the “recombinant UMI read abundance (log10)” value amounted to 0.0379.

With “AAGCACGCATGGACCGGTTTTCCCGGTAATCCGTATTTGGG (site TAGCACGCTCC)”, the “recombinant UMI read abundance (log10)” value came to 0.0044.

Turning to “AAGCGGTCATGGACCGGTTTTCCCGGTAATCCGTATTTGTT (site AAGCGGTCTAA)”, the “recombinant UMI read abundance (log10)” value was determined as 1.4.

As for “AAGGATACATGGACCGGTTTTCCCGGTAATCCGTATTTGCC (site AAGGATACTGG)”, the “recombinant UMI read abundance (log10)” value turned out to be 2.67.

In the case of “AAGGCCCCATGGACCGGTTTTCCCGGTAATCCGTATTTGGT (site AAGGCCCCTAC)”, the “recombinant UMI read abundance (log10)” value turned out to be 0.395.

“AAGGGATCATGGACCGGTTTTCCCGGTAATCCGTATTTGTT (site AAGGGATCTAA)”: the “recombinant UMI read abundance (log10)” value was 2.95.

In the case of “AAGGGCTCATGGACCGGTTTTCCCGGTAATCCGTATTTGGC (site AAGGGCTCTGC)”, the “recombinant UMI read abundance (log10)” value is 3.63.

On to “AAGTAGACATGGACCGGTTTTCCCGGTAATCCGTATTTGCA (site AAGTAGACTTG)”, for which the “recombinant UMI read abundance (log10)” value came out at 2.72.

Consider “AAGTAGACATGGACCGGTTTTCCCGGTAATCCGTATTTGCA (site AGGAAGACTTG)”, for which the “recombinant UMI read abundance (log10)” value was found to be 0.52.

In the case of “AAGTCGACATGGACCGGTTTTCCCGGTAATCCGTATTTGAA (site AAGTCGACTTT)”, the “recombinant UMI read abundance (log10)” value amounted to 0.435.

Consider “AAGTCGCCATGGACCGGTTTTCCCGGTAATCCGTATTTGGT (site AAGTCGCCTAC)”, for which the “recombinant UMI read abundance (log10)” value amounted to 0.0178.

For “AAGTGTGCATGGACCGGTTTTCCCGGTAATCCGTATTTGTC (site AAGTGTGCTGA)”, the “recombinant UMI read abundance (log10)” value is 2.99.

Consider “AAGTTGTCATGGACCGGTTTTCCCGGTAATCCGTATTTGTC (site AAGTTGTCTGA)”, for which the “recombinant UMI read abundance (log10)” value was 2.09.

On to “AATAAAGCATGGACCGGTTTTCCCGGTAATCCGTATTTGGC (site AATAAAGCTGC)”, for which the “recombinant UMI read abundance (log10)” value was found to be 1.32.

For the sequence “AATAAGACATGGACCGGTTTTCCCGGTAATCCGTATTTGCA (site AATAAGACTTG)”, the “recombinant UMI read abundance (log10)” value is 2.17.

For “AATAAGACATGGACCGGTTTTCCCGGTAATCCGTATTTGCA (site AGGAAGACTTG)”, the “recombinant UMI read abundance (log10)” value came to 1.4.

Take “AATACTTCATGGACCGGTTTTCCCGGTAATCCGTATTTGAG (site AATACTTCTCT)”: the “recombinant UMI read abundance (log10)” value amounted to 1.6.

As to “AATAGTACATGGACCGGTTTTCCCGGTAATCCGTATTTGTC (site AATAGTACTGA)”, the “recombinant UMI read abundance (log10)” value is 1.89.

As to “AATAGTGCATGGACCGGTTTTCCCGGTAATCCGTATTTGCC (site AATAGTGCTGG)”, the “recombinant UMI read abundance (log10)” value was determined as 1.5.

On to “AATATGGCATGGACCGGTTTTCCCGGTAATCCGTATTTGCG (site AATATGGCTCG)”, for which the “recombinant UMI read abundance (log10)” value came out at 1.22.

Turning to “AATCAATCATGGACCGGTTTTCCCGGTAATCCGTATTTGCC (site AATCAATCTGG)”, the “recombinant UMI read abundance (log10)” value is 1.98.

Consider “AATCACGCATGGACCGGTTTTCCCGGTAATCCGTATTTGGG (site AAACACGCTCC)”, for which the “recombinant UMI read abundance (log10)” value is 0.0181.

In the case of “AATCACGCATGGACCGGTTTTCCCGGTAATCCGTATTTGGG (site AACCACGCTCC)”, the “recombinant UMI read abundance (log10)” value is 0.0334.

On to “AATCACGCATGGACCGGTTTTCCCGGTAATCCGTATTTGGG (site AAGCACGCTCC)”, for which the “recombinant UMI read abundance (log10)” value amounted to 0.0135.

Consider “AATCACGCATGGACCGGTTTTCCCGGTAATCCGTATTTGGG (site AATCACGCTCC)”, for which the “recombinant UMI read abundance (log10)” value turned out to be 0.0109.

“AATCCATCATGGACCGGTTTTCCCGGTAATCCGTATTTGAT (site AATCCATCTAT)”: the “recombinant UMI read abundance (log10)” value was 0.288.

Turning to “AATCGAACATGGACCGGTTTTCCCGGTAATCCGTATTTGTC (site AATCGAACTGA)”, the “recombinant UMI read abundance (log10)” value turned out to be 0.559.

Regarding “AATCGGACATGGACCGGTTTTCCCGGTAATCCGTATTTGAT (site AATCGGACTAT)”, the “recombinant UMI read abundance (log10)” value was found to be 1.01.

For “AATCTCTCATGGACCGGTTTTCCCGGTAATCCGTATTTGGC (site AATCTCTCTGC)”, the “recombinant UMI read abundance (log10)” value was found to be 2.62.

Consider “AATCTTGCATGGACCGGTTTTCCCGGTAATCCGTATTTGTC (site AATCTTGCTGA)”, for which the “recombinant UMI read abundance (log10)” value was 1.07.

With “AATGACCCATGGACCGGTTTTCCCGGTAATCCGTATTTGTT (site AATGACCCTAA)”, the “recombinant UMI read abundance (log10)” value was 0.0112.

Regarding “AATGACTCATGGACCGGTTTTCCCGGTAATCCGTATTTGAG (site AATGACTCTCT)”, the “recombinant UMI read abundance (log10)” value was 2.08.

“AATGACTCATGGACCGGTTTTCCCGGTAATCCGTATTTGGT (site AATGACTCTAC)”: the “recombinant UMI read abundance (log10)” value was found to be 2.1.

With “AATGCAACATGGACCGGTTTTCCCGGTAATCCGTATTTGTG (site AATGCAACTCA)”, the “recombinant UMI read abundance (log10)” value came out at 0.302.

As to “AATGCACCATGGACCGGTTTTCCCGGTAATCCGTATTTGTG (site AATGCACCTCA)”, the “recombinant UMI read abundance (log10)” value was 0.0217.

As to “AATGCAGCATGGACCGGTTTTCCCGGTAATCCGTATTTGAA (site AATGCAGCTTT)”, the “recombinant UMI read abundance (log10)” value was determined as 0.709.
